From paper PMC7083565, “In vitro metabolism, reaction phenotyping, enzyme kinetics, CYP inhibition and induction potential of ataluren” (Pharmacology Research & Perspectives, 2020) come the findings set out here.

Where two headings read alike, the source gives them in different places.

For data set [1], the target named is T1, UGT1A9 (Homo sapiens, UniProt O60656).
T1 construct: purchased BD Biosciences; host or cells: baculovirus-infected insect cells
T1 sequence (O60656 26-530): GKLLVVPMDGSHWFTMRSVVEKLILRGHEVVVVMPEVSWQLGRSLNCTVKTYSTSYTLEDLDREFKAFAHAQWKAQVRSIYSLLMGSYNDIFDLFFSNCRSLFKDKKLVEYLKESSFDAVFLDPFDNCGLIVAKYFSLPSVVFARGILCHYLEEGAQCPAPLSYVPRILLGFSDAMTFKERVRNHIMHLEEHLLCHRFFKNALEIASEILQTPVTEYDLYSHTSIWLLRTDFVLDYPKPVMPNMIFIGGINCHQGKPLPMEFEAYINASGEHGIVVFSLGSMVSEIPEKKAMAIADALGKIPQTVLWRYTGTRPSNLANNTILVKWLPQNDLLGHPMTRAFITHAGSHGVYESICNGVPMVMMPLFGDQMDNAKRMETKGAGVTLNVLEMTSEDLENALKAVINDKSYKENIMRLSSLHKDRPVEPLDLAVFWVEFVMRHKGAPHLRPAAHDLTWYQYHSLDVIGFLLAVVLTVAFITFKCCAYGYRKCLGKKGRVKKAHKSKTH
The data set is described as follows: Ataluren glucuronidation kinetics, recombinant human UGT1A9. It counts as in vitro ADME. To be noted: for K m / K m, u / V max: mean ± SE; for K m / K m, u / V max / fraction unbound at 15 min: n = 3; for microsomal CLint / fraction unbound at 15 min: human; for microsomal CLint: read-out: CLint,u,UGT; for fraction unbound at 15 min: recombinant human UGT1A9 incubation mixture, mean ± SD, read-out: fu,inc. How it is done: Ataluren at 0.5, 2.5, 12.5, 25, 50, 100, 200, and 400 µmol/L, was incubated (n = 3) at 37°C with recombinant human UGT1A9 and with pooled microsomes from human liver, kidney, and intestine (0.025 mg protein/mL, preactivated with alamethicin at 20 µg/mL) in Tris‐HCl buffer (0.1 mol/L, pH 7.5), in the presence of 1 mmol/L EDTA, 5 mmol/L MgCl2, with or without 0.5%, 1%, or 2% BSA. The incubation (100 µL final volume with 0.5% DMSO) was started by adding an equal volume of UDPGA (5 mmol/L) in Tris‐HCl buffer (0.1 mol/L, pH 7.5). After 30 minutes incubation, the incubation mixtures were combined with 0.3 mL of an internal standard solution in acetonitrile with 1% formic acid, followed by membrane plate filtration. The filtrates were used for LC‐MS/MS analysis to quantify the formation of ataluren‐O‐1β‐acyl glucuronide. Detailed LC‐MS/MS conditions are summarized in LC‐MS/MS Analysis section. Ataluren acyl glucuronide formation rate after 30 minutes incubation was calculated using the amount of metabolite formed (pmol) divided by the protein amount in the incubation sample (0.0025 mg) and the incubation time (30 minutes). Ataluren glucuronidation kinetic parameters were determined with and without adjusting BSA binding by nonlinear regression (GraphPad Prism, 5version 5.04, GraphPad Software, Inc.) using Michaelis‐Menten equation which was the best fit compared with other models. The intrinsic clearance was calculated as CLint = Vmax/Km. In order to compare unbound intrinsic clearance by glucuronidation (CLint,u,UGT) in different tissues, CLint,u,UGT was expressed per gram of tissue by correcting the values for the microsomal protein yield, resulting in scaled CLint,u,UGT. Microsomal protein yields of 40.0, 12.8, and 20.6 mg protein/g tissue were used for hepatic, renal, and intestinal data, respectively. ^26
The high‐throughput membrane ultrafiltration method ^27 was used to determine the fraction unbound in the incubation (n = 3). Incubation mixtures and procedures were essentially the same as the above except that UDPGA (5 mmol/L) was replaced with Tris‐HCl buffer (0.1 mol/L, pH 7.5). After 15 minutes incubation, aliquot was transferred to a Millipore Multiscreen Ultracel‐10 filter plate (10 kDa molecular mass cut off; EMD Millipore). The plate was centrifuged at 37°C and 3710 g. After 30 minutes centrifugation, aliquots of ultrafiltrates and incubation mixtures prior to ultrafiltration were quenched with an internal standard solution in acetonitrile, followed by membrane plate filtration. The filtrates were used for LC‐MS/MS analysis to quantify the concentration of ataluren. The same LC‐MS/MS conditions described above are summarized in LC‐MS/MS Analysis section. The free fraction = Cu/Cm, where Cu is the concentration of ataluren in the ultrafiltrate and Cm is the concentration of ataluren in the incubation system before centrifugation. Unbound Km (Km, u) was recalculated by applying Michaelis‐Menten equation using free ataluren concentrations after correcting BSA binding at each ataluren and BSA concentration level.
Quantification of ataluren‐O‐1β‐acyl glucuronide formation was conducted on an Accela pump and a PAL autosampler equipped with a TSQ Quantum Ultra mass spectrometer (Thermo Fisher Scientific). A Waters Acquity BEH column (C18, 1.7 µm, 50 × 2.1 mm; Waters Cooperation) was used and maintained at 50°C. The mobile phases were 0.1% formic acid in water (A) and acetonitrile (B). The flow rate was 0.6 mL/min and gradient program was as follows: linear gradient from 0% B to 95% B in 0.5 minutes and hold isocratic at 95% B for 1 minute; linear gradient from 95% B to 0% B in 0.1 minutes and hold isocratic at 0% B for 0.4 minutes. TSQ Quantum Ultra mass spectrometer was equipped with a heated electrospray ionization source operated in negative‐ion mode with a vaporizer temperature of 350°C, capillary temperature of 380°C, and spray voltage of 3 kV. […]

Data set [2] is described as follows: Glucuronidation in liver microsomes (tissue comparison). Particulars: 10 μmol/L, 60 minutes, n = 1. Type of data set: in vitro ADME, human. On the technique in general: Liver microsomes are a subcellular fraction often used to study metabolism.

With `O=C(O)c1cccc(-c2noc(-c3ccccc3F)n2)c1` [ataluren, Ataluren], the K m in data set [1] (UGT1A9, 0% BSA) turned out to be 4.76 ± 0.934 µM; in data set [1] (UGT1A9, 0.5% BSA), 26.4 ± 2.80 µM; in data set [1] (UGT1A9, 1% BSA), 45.6 ± 3.83 µM; in data set [1] (UGT1A9, 2% BSA), 83.4 ± 15.3 µM. Also, the “K m, u” value stood at 4.76 ± 0.934 µM in data set [1] (UGT1A9, 0% BSA); 2.71 ± 0.309 µM in data set [1] (UGT1A9, 0.5% BSA); 2.52 ± 0.243 µM in data set [1] (UGT1A9, 1% BSA); 2.46 ± 0.498 µM in data set [1] (UGT1A9, 2% BSA). Moreover, the V max was found to be 1058 ± 31.8 pmol/min/mg in data set [1] (UGT1A9, 0% BSA); 752 ± 20.3 pmol/min/mg in data set [1] (UGT1A9, 0.5% BSA); 842 ± 23.0 pmol/min/mg in data set [1] (UGT1A9, 1% BSA); 847 ± 56.2 pmol/min/mg in data set [1] (UGT1A9, 2% BSA). The microsomal CLint is 222 µL/min/mg in data set [1] (recombinant human UGT1A9, pH 7.5, UGT1A9, 0% BSA); 277 µL/min/mg in data set [1] (recombinant human UGT1A9, pH 7.5, UGT1A9, 0.5% BSA); 334 µL/min/mg in data set [1] (recombinant human UGT1A9, pH 7.5, UGT1A9, 1% BSA); 344 µL/min/mg in data set [1] (recombinant human UGT1A9, pH 7.5, UGT1A9, 2% BSA). The fraction unbound at 15 min in data set [1] (pH 7.5, UGT1A9, 0% BSA) stood at 1 ± 0.5; in data set [1] (pH 7.5, UGT1A9, 0.5% BSA), 0.116 ± 0.019; in data set [1] (pH 7.5, UGT1A9, 1% BSA), 0.064 ± 0.007; in data set [1] (pH 7.5, UGT1A9, 2% BSA), 0.035 ± 0.003. The “maximal effect of BSA on CLint,u (increase)” value in data set [1] (recombinant UGT1A9, with vs without BSA) is given as “approximately 1.6 fold”. In data set [2], this compound registered an ataluren loss of 31.4%.
